This passage reports Ki results from BindingDB's records for PubMed 8996189 (Pfizer, 1997).

Assay [1] deals with T1, Adenosine receptor A3 (Oryctolagus cuniculus, UniProt O02667).
T1 sequence (O02667 whole entry): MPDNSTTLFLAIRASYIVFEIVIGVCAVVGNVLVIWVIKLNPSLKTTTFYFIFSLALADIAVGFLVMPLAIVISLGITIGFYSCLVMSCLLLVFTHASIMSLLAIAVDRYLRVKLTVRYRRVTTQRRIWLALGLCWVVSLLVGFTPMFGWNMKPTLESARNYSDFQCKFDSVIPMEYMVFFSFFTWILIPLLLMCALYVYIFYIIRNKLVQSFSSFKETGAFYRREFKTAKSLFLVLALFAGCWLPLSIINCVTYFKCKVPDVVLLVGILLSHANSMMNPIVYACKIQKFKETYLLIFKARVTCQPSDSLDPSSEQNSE

Assay [2] concerns the target T2, Adenosine receptor A1 (Oryctolagus cuniculus, UniProt P34970).
T2 sequence (P34970 whole entry): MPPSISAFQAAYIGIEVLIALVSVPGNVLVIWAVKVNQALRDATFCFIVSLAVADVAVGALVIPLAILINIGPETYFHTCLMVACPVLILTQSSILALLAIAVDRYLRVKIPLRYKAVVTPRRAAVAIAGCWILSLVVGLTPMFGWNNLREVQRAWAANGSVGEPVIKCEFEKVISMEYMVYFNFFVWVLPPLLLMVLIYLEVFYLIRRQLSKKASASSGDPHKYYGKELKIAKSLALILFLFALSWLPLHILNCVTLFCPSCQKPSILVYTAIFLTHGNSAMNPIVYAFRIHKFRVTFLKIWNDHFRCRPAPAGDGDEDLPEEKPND

The target of assay [3] is T3, Adenosine receptor A3 (Homo sapiens, UniProt P0DMS8).
T3 sequence (P0DMS8 whole entry): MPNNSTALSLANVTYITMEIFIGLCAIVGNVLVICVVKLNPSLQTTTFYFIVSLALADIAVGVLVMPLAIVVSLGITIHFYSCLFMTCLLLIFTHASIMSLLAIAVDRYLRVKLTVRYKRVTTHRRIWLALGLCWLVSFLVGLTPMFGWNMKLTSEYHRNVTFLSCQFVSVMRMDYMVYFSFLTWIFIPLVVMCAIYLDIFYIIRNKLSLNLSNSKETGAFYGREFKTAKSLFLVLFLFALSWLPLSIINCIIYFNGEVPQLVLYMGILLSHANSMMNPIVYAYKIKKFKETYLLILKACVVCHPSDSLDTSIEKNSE

The target of assay [4] is T4, Adenosine receptor A1 (Homo sapiens, UniProt P30542).
T4 sequence (P30542 whole entry): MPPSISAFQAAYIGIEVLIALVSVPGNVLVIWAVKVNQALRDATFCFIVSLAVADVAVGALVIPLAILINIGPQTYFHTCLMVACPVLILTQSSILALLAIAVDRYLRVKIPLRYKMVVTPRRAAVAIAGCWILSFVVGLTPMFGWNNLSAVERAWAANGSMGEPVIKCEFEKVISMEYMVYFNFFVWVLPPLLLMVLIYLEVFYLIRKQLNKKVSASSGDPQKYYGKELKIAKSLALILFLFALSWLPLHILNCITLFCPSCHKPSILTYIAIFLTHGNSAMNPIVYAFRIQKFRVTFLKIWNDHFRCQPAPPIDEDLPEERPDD

In assay [5] the target is T5, Adenosine receptor A3 (Ovis aries, UniProt P35342).
T5 sequence (P35342 whole entry): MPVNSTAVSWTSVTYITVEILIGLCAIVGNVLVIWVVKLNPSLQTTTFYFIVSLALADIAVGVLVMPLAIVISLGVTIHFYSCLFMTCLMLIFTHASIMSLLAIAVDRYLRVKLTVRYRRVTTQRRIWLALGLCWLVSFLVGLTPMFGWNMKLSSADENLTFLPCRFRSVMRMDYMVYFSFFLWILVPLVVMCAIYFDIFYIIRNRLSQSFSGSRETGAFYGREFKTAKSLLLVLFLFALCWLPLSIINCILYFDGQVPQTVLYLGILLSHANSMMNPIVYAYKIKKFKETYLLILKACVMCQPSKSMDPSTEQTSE

The Ki is the dissociation constant of the complex between target and ligand, obtained from inhibition or displacement. Low values mean tighter binding, high ones weaker binding. With `CCNC(=O)[C@H]1O[C@@H](n2cnc3c(N)ncnc32)[C@H](O)[C@@H]1O`, the inhibition constant Ki on Adenosine receptor A3 [1] came to 27 nM; at Adenosine receptor A1 [2], 2 nM.

`OC[C@H]1O[C@@H](n2cnc3c(NC4CCCC4)ncnc32)[C@H](O)[C@@H]1O` showed an inhibition constant Ki at Adenosine receptor A3 [1] of 49 nM.

On Adenosine receptor A1 [2], `CNC(=O)C1OC(n2cnc3c(NCc4cccc(I)c4)ncnc32)C(O)C1O` (stereo not drawn) [3,4-dihydroxy-5-(6-{[(3-iodophenyl)methyl]amino}-9H-purin-9-yl)-N-methyloxolane-2-carboxamide] came in with an inhibition constant Ki of 30 nM.

On Adenosine receptor A3 [1], `Cn1c(=O)c2[nH]c(-c3ccc(S(=O)(=O)O)cc3)nc2n(C)c1=O` [4-(1,3-Dimethyl-2,6-dioxo-2,3,6,7-tetrahydro-1H-purin-8-yl)-benzenesulfonic acid] came in with a Ki above 10000 nM.

`Nc1ccc(CCNc2ncnc3c2ncn3C2OC(CO)C(O)C2O)cc1` (stereo not drawn) [ChEMBL_198532]: the Ki was 47 nM on Adenosine receptor A3 [1] and 6 nM at Adenosine receptor A1 [2].

At Adenosine receptor A3 [1], `CCCn1c(=O)c2[nH]c(C3CCCC3)nc2n(CCC)c1=O` [DPCPX] yielded an inhibitory constant (Ki) of 1120 nM.

Turning to `Nc1ccc(CNc2ncnc3c2ncn3[C@@H]2O[C@H](CO)[C@@H](O)[C@H]2O)cc1I` [IABA], the Ki at Adenosine receptor A3 [1] stood at 5 nM; at Adenosine receptor A1 [2], 4 nM.

On to `CCCn1c(=O)c2[nH]c(-c3ccc(OCC(=O)NCCN)cc3)nc2n(CCC)c1=O` [N-(2-Amino-ethyl)-2-[4-(2,6-dioxo-1,3-dipropyl-2,3,6,9-tetrahydro-1H-purin-8-yl)-phenoxy]-acetamide], for which the inhibition constant (Ki) was found to be 329 nM on Adenosine receptor A3 [1] and 5 nM on Adenosine receptor A1 [2].

With `CCCn1c(=O)c2[nH]c(-c3ccc(C=CC(=O)O)cc3)nc2n(CCC)c1=O` [NSC_129447], the inhibition constant Ki at Adenosine receptor A3 [3] turned out to be 40 nM; at Adenosine receptor A1 [4] it was 120 nM; on Adenosine receptor A3 [5], 21 nM; on Adenosine receptor A3 [1] it was 746 nM; at Adenosine receptor A1 [2] it was 3 nM.

The compound `CC(Cc1ccccc1)Nc1ncnc2c1ncn2C1OC(CO)C(O)C1O` (stereo not drawn) [R-N6-(2-phenylisopropyl) adenosine] registered a Ki at Adenosine receptor A3 [1] of 49 nM.
